Measurements reported in patent publication US8450308B2 (Vitae Pharmaceuticals, Inc., priority 2008, dated 2013).

assay: BACE cell assay: soluble Amyloid Beta 1-40 (Aβ 1-40) in culture media of H4-APPsw cells; format: cell-based; details: not given
Description: H4 neuroglioma cell line that stably expresses Amyloid Precursor Protein (APP) containing the KM-NL Swedish mutation (H4-APPsw) was generated. For the assay, cells are treated overnight in the presence of inhibitor and the culture media are subjected to ELISA analysis of soluble Amyloid Beta 1-40 (Aβ 1-40).
H4 neuroglioma cell line was cultured in DMEM with 10% FBS and 1% penicillin/streptomycin (Culture Medium) at 37° C., 5% CO2. […] 24 hrs after transfection, the cells were replaced into three new plates (150 mm) in fresh Culture Medium with 250 ug/ml Zeocin. […] The levels of APPsw expression were analyzed by immunoblotting and the production of Aβ 1-40 was detected by ELISA of culture supernatants. The selected clones are maintained in Culture Medium with 250 μg/ml Zeocin and routinely split in 3-4 days to maintain 20-80% confluence.
Split cells. Split H4-APPsw cells in Culture Medium and culture overnight such that cells will be ˜80% confluent next morning.
Create Compound Dilution Plate. After determining the desired final concentration of compound to be tested, create a 500× dilution plate. Add DMSO, but not inhibitor, to each well of Column 1. […] Add compounds of interest at 500× desired final concentration to wells A3-A10. Add DMSO, but not inhibitor, to each well of Columns 11 and 12. Dilute contents of Row A 1:3 in Row B. then continue through Rows C—H.
Create Media Plate. To create a 2× solution of compound in media, add 996 μL Culture Medium to each well of a 96-well 2 ml deep well plate (Media Plate) in biosafety hood. Add 4 μL 5 mM control compound to Media Plate wells A1-D1 for determination of full inhibition.
Add media to Cell Plate. With a multichannel pipettor, mix each well of Media Plate several times to insure homogeneity. Add 100 μL of mixture to Black polymer bottom P-D-L plates. Next, place Medium Plate and Cell Plate in the incubator.
Add cells to Cell Plate. Trypsinize and count H4-APPsw cells. Dilute cells 6×10^5 cells/ml in Culture Medium and remove Cell Plate from incubator. Vortex cells to homogeneity, then using a multichannel repeating pipettor, add 100 μL cell suspension to Cell Plate, adding cells from Row H to Row A. Place Cell Plate in incubator.
Change media in Cell Plate. After 5 h, check Cell Plate by microscope to insure cells are attached. In culture hood, remove media from Cell Plate using multichannel repeating pipettor. Add 100 μl Culture Medium to each well. Remove Media Plate from incubator and mix with pipettor as previous. Add 100 μl from each well of Media Plate to corresponding well in Cell Plate. Place Cell Plate in incubator overnight.
Perform ELISA to determine levels of secreted Aβ 1-40. After 16 h incubation, spin Cell Plate for 8 min at 1200 rpm. The primary reading of Aβ 1-40 levels is done using PerkinElmer AlphaLISA technology. Follow the manufacturer's protocol for performing AlphaLISA in a white ½ area Optiwell plate using Row 12 for peptide standard (1:2 dilutions, starting at 15 ng/ml). Data are acquired using PerkinElmer Fusion-Alpha FP-HT, Alpha protocol (Count Time 0.6 s, Count Time Ratio 30%:70%).
Export data from Fusion using Columnar Report format into a separate file for each plate. Upload data into Activity Base using RIA-DOSE-RESPONSE protocol (Version 1). Data from at least eight doses were fitted to a four parameter logistical model using XLfit software to determine potency.

Row | SMILES | IC50 [nM]
1 | CN1OC2(CC3(CCCc4ccccc4C3)Oc3ccc(-c4cccc(C#N)c4)cc32)N=C1N (stereo not drawn) [Compound 217] | 100 to 500

same assay, conditions: in vitro cell activity, H4-APPsw cells, secreted Aβ 1-40, overnight treatment; read-out: IC50

Row | SMILES | IC50 [nM]
2 | COc1cc(F)cc(-c2ccc3c(c2)[C@]2(C[C@]4(CCCOC4)O3)N=C(N)N(C)C2=O)c1 [Compound 271] | 500 to 1000
3 | CN1O[C@]2(C[C@]3(CCCc4ccccc4C3)Oc3ccc(-c4cccc(C#N)c4)cc32)N=C1N [Compound 220] | 100 to 500
4 | CN1C(=O)C2(CC(C3CCOC(C)(C)C3)Oc3ccc(-c4cc(Cl)cc(Cl)c4)cc32)N=C1N (stereo not drawn) [Compound 196] | 1 to 100
5 | CN1O[C@@]2(C[C@@H]([C@H]3CCOC(C)(C)C3)Oc3ccc(-c4cccc(C#N)c4)cc32)N=C1N [Compound 207] | 100 to 500
6 | CN1OC2(CC(C3CCOC(C)(C)C3)Oc3ccc(-c4cc(C#N)cc(C(F)(F)F)c4)cc32)N=C1N (stereo not drawn) [Compound 257] | 100 to 500
7 | CN1OC2(CC(C3CCOC(C)(C)C3)Oc3ccc(-c4cc(C#N)ccc4F)cc32)N=C1N (stereo not drawn) [Compound 261] | 500 to 1000
8 | CN1C(=O)C2(CC(C3CCOC(C)(C)C3)Oc3ccc(-c4cccc(OC(F)(F)F)c4)cc32)N=C1N (stereo not drawn) [Compound 184] | 1 to 100
9 | CN1C(=O)C2(C[C@H]([C@H]3CCOC(C)(C)C3)Oc3ccc(-c4cccc(C#N)c4)cc32)N=C1N (stereo partly drawn) [Compound 230] | 1 to 100
10 | CN1O[C@@]2(C[C@@]3(CCCc4ccccc4C3)Oc3ccc(-c4cccc(C#N)c4)cc32)N=C1N [Compound 209] | 1000 to 5000
11 | CN1C(=O)[C@@]2(C[C@]3(CCCOC3)Oc3ccc(-c4cc(Cl)cc(Cl)c4)cc32)N=C1N [Compound 202] | 1 to 100
12 | C[C@H]1CC[C@]2(CO1)CC1(N=C(N)N(C)O1)c1cc(-c3cccc(C#N)c3)ccc1O2 (stereo partly drawn) [Compound 272, 3-(3″-amino-2″-methyl-4″,5″-dihydro-2″H-spiro(spiro(chroman-2,3′-[(2R,6R/2S,6S)-2,4,5,6-tetrahydro-6-methyl-pyran])-(4R/4S)-4,5″-[1,2,4]oxadiazole)-6-yl)benzonitrile] | 500 to 1000
13 | CN1C(=O)[C@@]2(C[C@]3(CCCOC3)Oc3ccc(-c4ccc(F)c(Cl)c4)cc32)N=C1N [Compound 233] | 100 to 500
14 | CN1O[C@]2(C[C@@]3(CCCc4ccccc43)Oc3ccc(-c4cccc(C#N)c4)cc32)N=C1N [Compound 266] | 1000 to 5000
15 | CN1C(=O)[C@@]2(C[C@]3(CCCOC3)Oc3ccc(-c4cc(F)cc(C#N)c4)cc32)N=C1N [Compound 250] | 100 to 500
16 | CN1OC2(CC3(CCCc4ccccc4C3)Oc3ccc(-c4cccnc4)cc32)N=C1N (stereo not drawn) [Compound 181] | 1 to 100
17 | CN1C(=O)C2(CC3(CCCc4ccccc4C3)Oc3ccc(-c4cccc(C#N)c4)cc32)N=C1N (stereo not drawn) [Compound 179] | 1 to 100
18 | CC(C)C#Cc1ccc2c(c1)C1(CC3(CCCc4ccccc4C3)O2)N=C(N)N(C)O1 (stereo not drawn) [Compound 265] | 1000 to 5000
19 | Cc1cccc(-c2ccc3c(c2)C2(CC(C4CCOC(C)(C)C4)O3)N=C(N)N(C)C2=O)c1F (stereo not drawn) [Compound 244] | 100 to 500
20 | COc1cc(Cl)cc(-c2ccc3c(c2)C2(CC(C4CCCc5ccccc54)O3)N=C(N)N(C)O2)c1 (stereo not drawn) [Compound 278] | 5000 to 10000
21 | CN1C(=O)C2(CC(C3CCOC(C)(C)C3)Oc3ccc(-c4cc(F)cc(C#N)c4)cc32)N=C1N (stereo not drawn) [Compound 194] | 1 to 100
22 | CN1OC2(CC(C3CCOC(C)(C)C3)Oc3ccc(-c4cc(F)cc(C#N)c4)cc32)N=C1N (stereo not drawn) [Compound 260] | 1000 to 5000
23 | CN1O[C@@]2(C[C@H]([C@@H]3CCOC(C)(C)C3)Oc3ccc(-c4cccc(C#N)c4)cc32)N=C1N [Compound 237] | 500 to 1000
24 | CN1OC2(CC(C3CCc4ccccc43)Oc3ccc(-c4cccc(C#N)c4)cc32)N=C1N (stereo not drawn) [Compound 226] | 1000 to 5000
25 | CN1C(=O)C2(CC(C3CCOC(C)(C)C3)Oc3ccc(-c4cc(F)cc(C(F)(F)F)c4)cc32)N=C1N (stereo not drawn) [Compound 195] | 1 to 100

Row | SMILES | IC50 [nM]
26 | CN1O[C@@]2(C[C@H](C3CCCc4ccccc43)Oc3ccc(-c4cccc(C#N)c4)cc32)N=C1N (stereo partly drawn) [Compound 247] | 500 to 1000
27 | CC1CC[C@@]2(CO1)C[C@]1(N=C(N)N(C)O1)c1cc(-c3ccc(F)c(Cl)c3)ccc1O2 (stereo partly drawn) [Compound 249] | 1000 to 5000
28 | CN1C(=O)C2(CC(C3CCOC(C)(C)C3)Oc3ccc(-c4cc(C#N)cc(C#N)c4)cc32)N=C1N (stereo not drawn) [Compound 185] | 1 to 100
29 | CN1OC2(CC(C3CCCc4ccccc43)Oc3ccc(-c4cc(C#N)cc(C#N)c4)cc32)N=C1N (stereo not drawn) [Compound 180] | 100 to 500
30 | Cc1ccc(C#N)cc1-c1ccc2c(c1)[C@]1(C[C@]3(CCCOC3)O2)N=C(N)N(C)C1=O [Compound 277] | 100 to 500
31 | CN1C(=O)C2(CC(C3CCCOC3)Oc3ccc(-c4cccc(F)c4)cc32)N=C1N (stereo not drawn) [Compound 273] | 500 to 1000
32 | CN1O[C@@]2(C[C@@H](C3CCCc4ccccc43)Oc3ccc(-c4ccc(F)c(Cl)c4)cc32)N=C1N (stereo partly drawn) [Compound 235] | 1000 to 5000
33 | CN1OC2(CC(C3COCc4ccccc43)Oc3ccc(-c4cccc(C#N)c4)cc32)N=C1N (stereo not drawn) [Compound 204] | 1000 to 5000
34 | CN1OC2(CC3(CCCc4ccccc4C3)Oc3ccc(-c4cc(F)cc(C(F)(F)F)c4)cc32)N=C1N (stereo not drawn) [Compound 242] | 1000 to 5000
35 | CN1OC2(CC3(CCCc4ccccc4C3)Oc3ccc(-c4cccc(Cl)c4)cc32)N=C1N (stereo not drawn) [Compound 189] | 500 to 1000
36 | CN1OC2(CC(C3CCCc4ccccc43)Oc3ccc(-c4cc(F)cc(C#N)c4)cc32)N=C1N (stereo not drawn) [Compound 198] | 1000 to 5000
37 | C[C@@H]1CC[C@@]2(CO1)CC1(N=C(N)N(C)O1)c1cc(-c3cccc(C#N)c3)ccc1O2 (stereo partly drawn) [Compound 275, 3-(3″-amino-2″-methyl-4″,5″-dihydro-2″H-spiro(spiro(chroman-2,3′-[(2R,6R/2S,6S)-2,4,5,6-tetrahydro-6-methyl-pyran])-(4S/4S)-4,5″-[1,2,4]oxadiazole)-6-yl)benzonitrile] | 500 to 1000
38 | CN1C(=O)[C@@]2(C[C@@H](C3CCCc4ccccc43)Oc3ccc(-c4cccc(C#N)c4)cc32)N=C1N (stereo partly drawn) [Compound 245] | 500 to 1000
39 | CN1OC2(CC3(CCCc4ccccc4C3)Oc3ccc(-c4cc(F)cc(C#N)c4)cc32)N=C1N (stereo not drawn) [Compound 186] | 500 to 1000
40 | Cc1cc(C)cc(-c2ccc3c(c2)[C@]2(C[C@]4(CCCOC4)O3)N=C(N)N(C)C2=O)c1 [Compound 276] | 500 to 1000
41 | CN1OC2(CC3(CCCc4ccccc4C3)Oc3ccc(-c4cc(C#N)cc(C#N)c4)cc32)N=C1N (stereo not drawn) [Compound 178] | 1 to 100
42 | CN1C(=O)[C@@]2(C[C@]3(CCCOC3)Oc3ccc(-c4cccc(OC(F)(F)F)c4)cc32)N=C1N [Compound 262] | 100 to 500
43 | CN1C(=O)C2(CC(C3CCOC(C)(C)C3)Oc3ccc(-c4cc(C#N)cc(C(F)(F)F)c4)cc32)N=C1N (stereo not drawn) [Compound 213] | 1 to 100
44 | CN1O[C@]2(C[C@@]3(CCCc4ccccc4C3)Oc3ccc(-c4cccc(C#N)c4)cc32)N=C1N [Compound 228] | 500 to 1000
45 | CN1OC2(CC3(CCCc4ccccc4C3)Oc3ccc(-c4ccc(F)c(Cl)c4)cc32)N=C1N (stereo not drawn) [Compound 192] | 500 to 1000
46 | CN1OC2(CC(C3CCCc4ccccc43)Oc3ccc(-c4cccc(Cl)c4)cc32)N=C1N (stereo not drawn) [Compound 239] | 1000 to 5000
47 | CN1O[C@@]2(C[C@H](C3CCCc4ccccc43)Oc3ccc(-c4ccc(F)c(C#N)c4)cc32)N=C1N (stereo partly drawn) [Compound 221] | 1000 to 5000
48 | COc1cc(Cl)cc(-c2ccc3c(c2)C2(CC4(CCC(C)OC4)O3)N=C(N)N(C)O2)c1 (stereo not drawn) [Compound 274] | 1000 to 5000
